The target of assay [1] is T1, histamine H2 (guinea-pig gastric fundus) (Cavia porcellus, UniProt P47747).
T1 construct: acid secretion of the isolated gastric fundus of the guinea-pig; from tissue; host or cells: guinea-pig gastric fundus (isolated organ)
Nature of the assay: Histamine H2-activity, acid secretion of the isolated gastric fundus of the guinea-pig. From the text:
(§1) The values for the H1 -activity given are the mean of at least two experiments in quadruplicate, while the values for the H2 -activity result from at least two experiments in duplicate.
(§2) Guinea-pig gastric acid secretion (H2)

The target of a further assay is T2, histamine H1 (Cavia porcellus, UniProt P31389).
T2 construct: functional contraction
T2 sequence (P31389 whole entry): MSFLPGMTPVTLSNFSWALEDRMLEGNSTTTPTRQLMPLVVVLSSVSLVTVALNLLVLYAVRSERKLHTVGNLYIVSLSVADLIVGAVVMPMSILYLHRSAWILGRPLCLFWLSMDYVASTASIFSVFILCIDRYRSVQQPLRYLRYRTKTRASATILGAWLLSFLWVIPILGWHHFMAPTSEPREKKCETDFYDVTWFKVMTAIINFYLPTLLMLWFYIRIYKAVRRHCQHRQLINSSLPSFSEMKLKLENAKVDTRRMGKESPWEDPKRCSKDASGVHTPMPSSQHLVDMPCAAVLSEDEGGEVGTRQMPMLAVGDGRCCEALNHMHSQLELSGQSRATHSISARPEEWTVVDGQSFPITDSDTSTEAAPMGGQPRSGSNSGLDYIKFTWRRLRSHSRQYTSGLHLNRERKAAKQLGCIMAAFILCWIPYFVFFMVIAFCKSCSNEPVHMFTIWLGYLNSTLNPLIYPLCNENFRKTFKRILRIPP
Nature of the assay: Histamine H1-activity, overall discussion (ileum/trachea). Also on record: species or system guinea-pig. As to conditions: structure-activity discussion. On the procedure:
The results of pharmacological tests with said new compounds are summarized in Table A (H1 -activity) and Table B (H2 -activity). The values for the H1 -activity given are the mean of at least two experiments in quadruplicate, while the values for the H2 -activity result from at least two experiments in duplicate.
(§3) Male guinea-pigs (350-500 g) were killed by a blow on the head and the trachea removed. Single segments were cut from the trachea, loaded with 0.4 g and placed in an organ bath (35° C.) containing 120 mM NaCl, 6 mM KCl, 1 mM MgSO4, 2.5 mM CaCl2, 1 mM NaH2 PO4, […] and 6 mM glucose. The organ bath was gassed with oxygen containing 5% CO2. PD2, intrinsic acitivity and antagonistic activity of the test compounds were determined from isotonically recorded, cumulative dose-response curves.

Assay [2] has as its target T3, histamine H1 (guinea-pig ileum) (Cavia porcellus, UniProt P31389).
T3 construct: from tissue; host or cells: guinea-pig ileum (isolated organ)
Nature of the assay: Histamine H1-activity, guinea-pig ileum.
Description: as §1

The target in assay [3] is T4, histamine H1 (guinea-pig trachea) (Cavia porcellus, UniProt P31389).
T4 construct: Single segments were cut from the trachea; from tissue; host or cells: guinea-pig trachea (isolated segments)
T4 sequence (P31389 whole entry): as above
Nature of the assay: Histamine H1-activity, guinea-pig trachea. As to conditions: for Kb: ± 0,2, mean of at least two experiments in quadruplicate. Here is the method:
as §1, §3

The target of assay [4] is T5, histamine H2 (guinea-pig right atrium) (Cavia porcellus, UniProt P47747).
T5 construct: from tissue; host or cells: guinea-pig right atrium (isolated organ)
T5 sequence (P47747 whole entry): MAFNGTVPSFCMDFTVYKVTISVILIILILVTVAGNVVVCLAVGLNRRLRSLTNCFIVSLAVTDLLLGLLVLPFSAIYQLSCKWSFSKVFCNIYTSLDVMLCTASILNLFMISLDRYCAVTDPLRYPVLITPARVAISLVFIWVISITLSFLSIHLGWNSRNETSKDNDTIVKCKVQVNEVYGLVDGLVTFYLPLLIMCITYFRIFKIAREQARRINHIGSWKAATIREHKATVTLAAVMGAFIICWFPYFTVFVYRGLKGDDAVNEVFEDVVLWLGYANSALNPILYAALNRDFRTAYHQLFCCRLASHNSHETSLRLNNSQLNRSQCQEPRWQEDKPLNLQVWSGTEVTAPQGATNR
Nature of the assay: Histamine H2-activity, guinea-pig right atrium.
Description: as §1
(§4) Guinea-pig right atrium H2
(§5) Ther., 19, 545-550 (1984).

The next assay has as its target T6, histamine H2 (Cavia porcellus, UniProt P47747).
T6 construct: functional chronotropy and acid secretion
Nature of the assay: Histamine H2-activity, overall discussion (atrium/gastric fundus). The arrangement: species or system guinea-pig. Particulars: atrium and fundus; structure-activity discussion.
Description: as §1, §4, §5, §2

The mark [5] stands for this setting: guinea-pig gastric fundus, ±0,2, at least two experiments in duplicate.
[6] abbreviates: read-out: Histamine H2-activity, α (intrinsic activity), guinea-pig gastric fundus, at least two experiments in duplicate.
Setting [7] is: guinea-pig ileum, ±0,2, mean of at least two experiments in quadruplicate.
The mark [8] stands for this setting: guinea-pig right atrium, ±0,1, at least two experiments in duplicate.
Setting [9] is: read-out: Histamine H2-activity, α (intrinsic activity), guinea-pig right atrium, at least two experiments in duplicate.
Setting [10] is: guinea pig, read-out: Histamine H2-activity, gastric fundus, α (intrinsic activity).
Where [11] appears, read: guinea pig, read-out: Histamine H2-activity, atrium, α (intrinsic activity).
Setting [12] is: gastric fundus, versus compound I.

Structures are written as SMILES. “Also recorded” adds a separate entry of the source. Like-named read-outs stand apart in the source and are kept apart here.

T6 sequence (P47747 whole entry): as above
T1 sequence (P47747 whole entry): as above
T3 sequence (P31389 whole entry): as the sequence (P31389 whole entry) above

By EC50 is commonly meant the concentration that produces a half-maximal response. A high value points to weaker potency. On to `N=C(NCC=C(c1ccccc1)c1ccccc1)NCCCc1c[nH]cn1` [Compound X], for which the EC50 in assay [1] (setting [5]) was 2510 nM; in assay [4] (setting [8]) it was 100 nM. The figures for the Emax in assay [1] (setting [6]) and in assay [4] (setting [9]) were 90% and 100%, respectively. Moreover, at histamine H1, the “H1-activity, comparison in words” value is “almost as potent H1 -antagonists as compound I”. For the same molecule, the Kb is 200 nM in assay [2] (setting [7]) and 631 nM in assay [3] (guinea-pig trachea). Besides, in assay [4] (atrium, introduction of a double bond (saturated analogue: IX)), the “decrease in H2-activity, atrium, on introduction of a double bond” value is reported as 4 fold. Besides, the “H2-activity on the atrium, comparison in words” value (from here on “H2-activity on the atrium”) in assay [4] (guinea-pig right atrium) is “most potent compounds of this series on the guinea-pig right atrium”.

Consider `Cc1ccc(C(SCCNC(=N)NCCc2c[nH]cn2)c2ccccc2)cc1` (stereo not drawn) [Compound V], for which, at histamine H2, the “H2-activity, comparison in words” value is given as “Analogous results; also recorded: strong decrease in H2 -activity”. The EC50 in assay [1] (setting [5]) and in assay [4] (setting [8]) was 100000 nM each time. Moreover, the Emax in assay [1] (setting [6]) and in assay [4] (setting [9]) was 0% throughout. At histamine H1, the “H1-activity, comparison in words” value is reported as “Analogous results; also recorded: only little or no effect at all on the H1 -antagonism”. The Kb in assay [2] (setting [7]) is 251 nM.

In the case of `N=C(NCCCc1c[nH]cn1)NCCSC(c1ccccc1)c1ccc(F)cc1` (stereo not drawn) [Compound VI, N-[2-(α-phenyl-4-fluorobenzylthio)ethyl]-N'-[3-(imidazol-4-yl)propyl]guanidine], the “H2-activity, comparison in words” value at histamine H2 is recorded as “strong decrease in H2 -activity”. For the same molecule, the EC50 in assay [1] (setting [5]) was 3160 nM; in assay [4] (setting [8]) it was 1260 nM. For the same molecule, the Emax in assay [1] (setting [6]) is 40%; in assay [4] (setting [9]) it was 80%. In addition, the “H1-activity, comparison in words” value at histamine H1 is “only little or no effect at all on the H1 -antagonism”. Further, the Kb in assay [2] (setting [7]) is 251 nM; in assay [3] (guinea-pig trachea), 158 nM.

For the molecule `N=C(NCCCc1c[nH]cn1)NCCSC(c1ccccc1)c1ccccc1` [Compound I, N-[2-(diphenylmethylthio)ethyl]-N'-[3-(imidazol-4-yl)propyl] guanidine], the “decrease in H2-agonism, fundus, versus compound XII” value in assay [1] (fundus, extra phenyl group in compound XII) worked out at 32 fold. In addition, the EC50 is 794 nM in assay [1] (setting [5]) and 158 nM in assay [4] (setting [8]). The Emax in assay [1] (setting [6]) and in assay [4] (setting [9]) was 100% in each case. In addition, the Kb in assay [2] (setting [7]) was 316 nM. For the same molecule, the “H2-activity on the atrium” value in assay [4] (guinea-pig right atrium) is listed as “most potent compounds of this series on the guinea-pig right atrium”.

Take `NC(=NCCCc1c[nH]cn1)NCCSCc1ccccc1` [XII, reference compound]: the “decrease in H2-activity, gastric fundus, versus impromidine” value in assay [1] (gastric fundus, 5-methylimidazole of impromidine replaced by phenyl) amounted to 8 fold. Further, the concentration for a half-maximal effect (EC50) in assay [1] (setting [5]) is 25.1 nM; in assay [4] (setting [8]), 63.1 nM. Further, the Emax in assay [1] (setting [6]) and in assay [4] (setting [9]) was 100% throughout. Besides, the “H1-activity, comparison in words” value at histamine H1 is given as “no change in H1 -activity”. The molecule also gave a Kb in assay [2] (setting [7]) of 3160 nM. Besides, in assay [4] (guinea-pig atrium, 5-methylimidazole of impromidine replaced by phenyl), the “decrease in H2-activity, atrium, versus impromidine” value was 4 fold.

For the molecule `Cc1ccccc1C(SCCNC(=N)NCCCc1c[nH]cn1)c1ccccn1` (stereo not drawn) [Compound VII, N-[3-(imidazol-4-yl)propyl]-N'-(2-[2-methyl-alpha-(2-pyridyl)benzylthio]ethyl)guanidine], the “H2-activity, comparison in words” value at histamine H2 is “almost as potent H2 -antagonist as the para methyl and fluoro analogues”. In addition, on histamine H1, the “H1-activity, comparison in words” value is given as “almost as potent H1 -antagonists as compound I”. Also, the Kb is 398 nM in assay [2] (setting [7]) and 1000 nM in assay [3] (guinea-pig trachea). For the same molecule, in assay [4] (setting [8]), the EC50 was 1260 nM. In addition, the Emax in assay [4] (setting [9]) stood at 80%.

As for `Cc1ccc(C(SCCNC(=N)NCCCc2c[nH]cn2)c2ccccc2)cc1` (stereo not drawn) [IV, N-[3-(imidazol-4-yl)propyl]-N'-2-[α-phenyl-4-methylbenzylthio]ethyl guanidine], the “H2-activity, comparison in words” value at histamine H2 was “strong decrease in H2 -activity”. In addition, the “H1-activity, comparison in words” value at histamine H1 was “only little or no effect at all on the H1 -antagonism”. In assay [2] (setting [7]), this molecule gave a Kb of 398 nM. The EC50 in assay [4] (setting [8]) is 1260 nM. Further, the Emax in assay [4] (setting [9]) was 80%.

Regarding `N=C(NCCc1c[nH]cn1)NCCC(c1ccccc1)c1ccccc1` [VIII, N-(3.3-diphenylpropyl)-N'-[2-(imidazol-4-yl)ethyl] guanidine], the EC50 in assay [1] (setting [5]) is 10000 nM; in assay [4] (setting [8]), 2510 nM. For the same molecule, the results for the Emax in assay [1] (setting [6]) and in assay [4] (setting [9]) were 0% and 90%, respectively. In addition, the “H1-activity, comparison in words” value at histamine H1 was “almost as potent H1 -antagonists as compound I”. Moreover, in assay [2] (setting [7]), the Kb is 631 nM. Besides, the “H2-activity on the atrium” value in assay [4] (guinea-pig right atrium) is given as “remarkable high potency on the guinea-pig right atrium”.

Take `N=C(NCCCc1c[nH]cn1)NCCN(Cc1ccccc1)c1ccccc1` [Compound XI, N-[2-(N'-benzyl-N'-phenylamino)ethyl]-N"-[3-(imidazol-4-yl)propyl]guanidine]: in assay [1] (gastric fundus, % of the activity of impromidine), the “activity relative to impromidine, gastric fundus” value was “about 1%”. The “activity relative to histamine, gastric fundus” value in assay [1] (gastric fundus, times the activity of histamine) amounted to 10 times. The EC50 was 316 nM in assay [1] (setting [5]) and 398 nM in assay [4] (setting [8]). The Emax in assay [1] (setting [6]) is 70%; in assay [4] (setting [9]), 100%. Also, the “H1-activity, comparison in words” value on histamine H1 is on record as “slightly more potent H1 -antagonist than the oxygen analogue compound II; also recorded: most potent H1 -antagonists of this series of impromidine analogues”. Also, the Kb in assay [2] (setting [7]) is 25.1 nM; in assay [3] (guinea-pig trachea) it was 15.8 nM. In addition, the “potency relative to histamine on the atrium, in words” value in assay [4] (atrium) is “about twice as potent as histamine on the atrium”. For the same molecule, the “activity relative to impromidine, atrium” value in assay [4] (atrium, % of the activity of impromidine) was “about 4%”.

Take `CN(C)CCCSC(=N)N` [dimaprit, reference compound]: in assay [3] (up to 10^-3 M), the “effect on resting state and histamine induced contractions of the trachea” value is listed as “neither effect on the resting state of the organ nor on the histamine induced contractions”.

`N=C(NCCCc1c[nH]cn1)NCCC(c1ccccc1)c1ccccc1` [Compound IX, N-(3.3-diphenylpropyl)-N'-[3-(imidazol-4-yl)propyl]guanidine]: the “H2-activity, comparison in words” value on histamine H2 is listed as “Analogous results”. Moreover, the “H1-activity, comparison in words” value on histamine H1 is reported as “Analogous results; also recorded: almost as potent H1 -antagonists as compound I”. Further, the Kb in assay [2] (setting [7]) is 501 nM. The “H2-activity on the atrium” value in assay [4] (guinea-pig right atrium) was “remarkable high potency on the guinea-pig right atrium; also recorded: almost as potent as impromidine on the atrium; also recorded: most potent compounds of this series on the guinea-pig right atrium”. The molecule further had an EC50 in assay [4] (setting [8]) of 20 nM. In addition, in assay [4] (setting [9]), the Emax was 100%.

Consider `N=C(NCCSC(c1ccccc1)c1ccccc1)NCCc1c[nH]cn1` [II, N-[2-(diphenylmethylthio)ethyl]-N'-[2-imidazol-4-yl)ethyl guanidine], for which the “H2-activity, comparison in words” value at histamine H2 is “marked decrease in H2 -activity, both on the atrium and on the fundus”. Besides, the 50% effective concentration (EC50) was 12600 nM in assay [1] and 15800 nM in assay [4]. Further, the figures for the Emax in assay [1] (setting [10]) and in assay [4] (setting [11]) were 50% and 80%, respectively. Further, the “H1-activity, comparison in words” value at histamine H1 is listed as “no effect on the H1 -activity”. Further, the Kb in assay [2] was 398 nM.

Regarding `N=C(NCCCc1c[nH]cn1)NCCOC(c1ccccc1)c1ccccc1` [III, N-[2-(diphenylmethoxy)ethyl]-N'-[3-(imidazol-4-yl)propyl] guanidine], the “change in intrinsic activity on the gastric fundus, in words” value in assay [1] (setting [12]) was “remarkable decrease in intrinsic activity”. Besides, in assay [1] (setting [12]), the “change in pD2 on the gastric fundus, in words” value is “less pronounced”. In addition, the EC50 in assay [1] (setting [5]) was 1580 nM; in assay [4] (setting [8]), 3160 nM. Also, the Emax in assay [1] (setting [6]) turned out to be 40%; in assay [4] (setting [9]), 90%. Further, the “H1-activity, comparison in words” value at histamine H1 was “most potent H1 -antagonists of this series of impromidine analogues”. Besides, the “H1 potency relative to the starting compound, ileum” value in assay [2] (guinea-pig ileum, versus sulphur starting compound (I)) was “ten times as potent as the starting compound”. For the same molecule, the figures for the Kb in assay [2] (setting [7]) and in assay [3] (guinea-pig trachea) were 31.6 nM and 25.1 nM, respectively. Moreover, in assay [3] (guinea-pig trachea, versus sulphur starting compound (I)), the “H1 potency relative to the starting compound, trachea” value was determined as 25 times. The “decrease in H2-agonism, atrium, versus compound I” value in assay [4] (atrium, sulphur of compound I replaced by oxygen) amounted to 20 fold.

For the molecule `NCCc1c[nH]cn1` [Histamine, reference compound], the Emax in assay [1] (setting [10]) and in assay [4] (setting [11]) was 100% each time.

These data come from patent US5010095A, “N-(W-substituted alkyl)-'-(imidazol-4-yl)alkyl)guanidine” (Cedona Pharmaceuticals B.V., priority 1986, dated 1991).
